Results on one compound are retold here after patent US20250109127A1, “METHODS OF USE OF PHENOXYPROPYLAMINE COMPOUNDS TO TREAT DEPRESSION” (Minerva Neurosciences, Inc., priority 2013, published 2025).

In data set [1] the target is 5-HTT (Homo sapiens, UniProt P31645). As to the kind of experiment: Receptor binding, 5-HTT.
The subject of data set [2] is sleep EEG parameters. As to the kind of experiment: Polysomnography / sleep EEG study. It is filed as in vivo, human. The protocol: In this study, certain pharmacodynamic sleep parameters predictive of antidepressant activity were monitored and measured. […] Three doses of SON-117 were tested (1 mg, 3 mg, 7.5 mg). […] In an embodiment, SON-117 affected sleep. In an embodiment, SON-117 affected REM sleep.
[…] subjects were tested in a sleep study, where 23 subjects were dosed with SON-117 in amounts of 1 mg up to 7.5 mg; 12 were given a placebo; and 8 were given escitalopram at a dose of 20 mg. Sleep was recorded in individual sound-attenuated and comfortably furnished bedrooms. During bedtime hours subjects were recumbent and the lights are turned off. The polysomnographic montage consisted of 4 EEG channels (C3A2, O1A2, C4A1, and O2A1), bilateral electro-oculograms, and 2 submental electromyograms. The different sleep parameters were derived with the Hypnos software from the visual scoring of the recordings at 30 sec epochs according to Rechtschaffen and Kales (1968) rules. Sleep continuity parameters comprise both sleep initiation and sleep maintenance variables. Sleep architecture parameters, which include REM sleep parameters, comprise stages distribution variables documenting duration and proportion of the different sleep stages and sleep profile variables that provide an outline on the time course of the different sleep stages during the recording period. All night sleep EEG spectral analysis was carried out on the C3-A2 derivation by means a fast Fourrier transform algorithm. Epoch length was 2 seconds at a sampling rate of 256 Hz and truncating error was reduced by applying a Hanning window. Sleep visual scores of each 30-second epoch was synchronised with power density values in order to allow the analysis of power density within in specific period of time such as REM and non REM sleep.

Data set [3] concerns animals exposed to chronic mild stress. The data set can be described thus: Chronic mild stress (CMS) model, consumption of 1% sucrose solution. It is filed as in vivo, rat. As to conditions: for effect on sucrose intake one week after cessation of treatments: stressed animals. The protocol: Male Wistar rats (Charles River, Germany) were brought into the laboratory one month before the start of the experiment. Except as described below, the animals were singly housed with food and water freely available, and were maintained on a 12-h light/dark cycle, in a constant temperature (22±2° C.) and humidity (50±5%) conditions.
After a period of 2 weeks of adaptation to laboratory and housing conditions, the animals were first trained to consume a 1% sucrose solution; training consisted of nine 1 h baseline tests in which sucrose was presented, in the home cage, following 14 h food and water deprivation; the sucrose intake was measured by weighing pre-weighed bottles containing the sucrose solution, at the end of the test. Subsequently, the sucrose consumption was monitored, under similar conditions, at weekly intervals throughout the whole experiment.
On the basis of their sucrose intakes in the final baseline test, the animals were divided into two matched groups. One group of animals was subjected to the chronic mild stress procedure for a period of 8 consecutive weeks. Each week of stress regime consisted of: two periods of food or water deprivation, two periods of 45 degree cage tilt, two periods of intermittent illumination (lights on and off every 2 h), two periods of soiled cage (250 ml water in sawdust bedding), one period of paired housing, two periods of low intensity stroboscopic illumination (150 flashes/min), and three periods of no stress. All stressors were 10-14 h of duration and were applied individually and continuously, day and night. Control animals were housed in separate rooms and had no contact with the stressed animals. They were deprived of food and water for the 14 h preceding each sucrose test, but otherwise food and water were freely available in the home cage.
On the basis of their sucrose intakes following initial 2 weeks of stress, both the stressed and the control groups were each divided further into matched subgroups (n=8), and for subsequent five weeks they received once daily intraperitoneal injections of vehicle (0.5% hydroxypropylmethylcellulose, 1 ml/kg), SON-117 (0.001, 0.01, 0.1 and 1 mg/kg) or imipramine (10 mg/kg) as the reference treatment. The drugs were administered at approx. 10:00 AM and the weekly sucrose tests were carried out 24 h following the last drug injections. After five weeks all treatments were terminated and one additional sucrose test was carried out after one week of withdrawal. Stress was continued throughout the period of treatment and withdrawal.
(§1) After completion of the administration and withdrawal period, all control and stressed animals were placed in an open field (100 cm in diameter, 35 cm high) and allowed to explore two identical objects (cylinder-shaped object with walls painted white, 7 cm in diameter, 11 cm high) for the time required to complete 15 s of exploration of either object. For the retention trial conducted one hour later, one of the objects presented previously was replaced with a novel object (prism-shaped object with walls painted black, 5 cm wide, 14 cm high). Rats were returned to the open field for 5 min and the duration of exploration (i.e. sitting in close proximity to the objects, sniffing or touching them) of each object was measured separately by a trained observer. The data were calculated according to the following formula: [time of novel object exploration divided by time of novel plus familiar object exploration multiplied by 100]. The CMS and NOR data were analyzed by multiple analyses of variance with three between-subjects factors (stress/control, drug treatments and intakes in successive sucrose tests). The Fisher's LSD test was used for the post-hoc comparisons of means.

Data set [4] has as its target 5-HT2A (Homo sapiens, UniProt P28223). The data set can be described thus: Receptor binding, 5-HT2A.
Data set [5] has as its system subjective sleep. The data set can be described thus: Leeds Sleep Evaluation Questionnaire (LSEQ). As to conditions: SON-117 1 mg; after single administration, sustained up to day 16. Type of data set: in vivo, human.
Data set [6] concerns animals exposed to chronic mild stress. As to the kind of experiment: Novel object recognition test after CMS and treatment withdrawal. It is filed as in vivo, rat.
Description: as §1

Data set [7] can be described thus: Pharmacokinetic study, plasma concentration on day 1 and day 14. Type of data set: in vivo. As to conditions: day 1 and day 14 after dosing with SON-117. The source says:
were examined in pharmacokinetic studies.
FIG. 34 illustrates the plasma concentration of SON-117 as a function of time on day 1 after dosing with SON-117. FIG. 35 illustrates the plasma concentration of SON-117 as a function of time on day 14 after dosing with SON˜117.
FIG. 36 illustrates the plasma concentration of the M1 metabolite of SON-117 as a function of time on day 1 after dosing with SON-117. FIG. 37 illustrates the plasma concentration of the M1 metabolite of SON-117 as a function of time on day 14 after dosing with SON-117.

“Also recorded” adds a separate entry of the source. Structures can show the parent of a compound that is named as a salt.

Sequence of 5-HT2A (P28223 whole entry): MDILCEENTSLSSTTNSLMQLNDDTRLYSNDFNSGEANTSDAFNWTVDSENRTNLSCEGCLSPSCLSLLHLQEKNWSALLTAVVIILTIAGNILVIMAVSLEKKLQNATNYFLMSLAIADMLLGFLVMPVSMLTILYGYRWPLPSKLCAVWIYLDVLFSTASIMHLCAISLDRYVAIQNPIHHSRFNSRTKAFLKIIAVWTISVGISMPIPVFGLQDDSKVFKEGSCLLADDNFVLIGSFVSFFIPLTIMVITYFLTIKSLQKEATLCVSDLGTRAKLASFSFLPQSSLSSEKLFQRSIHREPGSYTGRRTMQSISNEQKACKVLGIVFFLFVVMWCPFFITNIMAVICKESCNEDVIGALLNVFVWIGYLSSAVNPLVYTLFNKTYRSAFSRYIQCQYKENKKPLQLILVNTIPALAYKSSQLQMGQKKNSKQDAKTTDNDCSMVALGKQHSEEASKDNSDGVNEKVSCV
Sequence of 5-HTT (P31645 whole entry, species assumed): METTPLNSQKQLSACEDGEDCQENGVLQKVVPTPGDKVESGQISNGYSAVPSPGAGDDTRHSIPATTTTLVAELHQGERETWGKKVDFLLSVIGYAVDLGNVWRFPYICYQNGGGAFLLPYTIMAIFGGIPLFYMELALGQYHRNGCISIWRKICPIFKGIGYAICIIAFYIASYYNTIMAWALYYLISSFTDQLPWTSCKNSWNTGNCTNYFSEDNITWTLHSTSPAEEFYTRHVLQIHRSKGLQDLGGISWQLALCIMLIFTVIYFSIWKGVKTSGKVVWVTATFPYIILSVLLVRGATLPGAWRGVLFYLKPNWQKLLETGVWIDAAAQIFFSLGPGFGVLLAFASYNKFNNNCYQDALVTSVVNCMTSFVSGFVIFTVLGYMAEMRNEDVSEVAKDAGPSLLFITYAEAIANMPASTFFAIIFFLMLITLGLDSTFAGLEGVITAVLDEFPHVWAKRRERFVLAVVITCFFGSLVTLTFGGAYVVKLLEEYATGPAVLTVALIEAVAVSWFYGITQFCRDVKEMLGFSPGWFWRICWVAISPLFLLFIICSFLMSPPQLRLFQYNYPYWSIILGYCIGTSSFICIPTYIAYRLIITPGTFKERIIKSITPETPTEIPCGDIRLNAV

As to `Cc1nnc(-c2cc3c(OC[C@@H](O)CN4CCC(c5ccc(Cl)c(Cl)c5)CC4)cccc3o2)o1` [SON-117, (S)-1-(4-(3,4-dichlorophenyl)piperidino)-3-(2-(5-methyl-1,3,4-oxadiazol-2-yl)benzo(b)furan-4-yloxy)-2-propanol hydrochloride], in data set [1], the “affinity, 5-HTT binding” value is given as “high affinity”. Also, the “effect of discontinuation of dosing on sleep EEG parameters, including REM sleep” value in data set [2] (SON-117) is given as “no evidence”. The “slow wave sleep (SWS)” value in data set [2] (SON-117 1 mg, day 1 and day 14, second third of the night, hydrochloride) is “could increase; also recorded: increased”. Further, the “REM sleep, REM density/activity” value in data set [2] (SON-117 repeated dosing, two highest dosages (3 mg, 7.5 mg), particularly 7.5 mg, hydrochloride) is on record as “could have REM sleep promoting effect; also recorded: increased”. Besides, the “sleep continuity and sleep architecture parameters” value in data set [2] (SON-117 three doses tested (1, 3, 7.5 mg)) is given as “largely not influenced”. For the same compound, the “dose at which rapid-onset normalization of sucrose intake was observed (as low as)” value in data set [3] (CMS model) was found to be 1 µg/kg. In addition, the “effect on sucrose intake one week after cessation of treatments” value in data set [3] (SON-117 0.001 mg/kg) is reported as “maintained”. Moreover, the “time at which increase of sucrose consumption in stressed animals reached significance vs Week 0” value in data set [3] (SON-117 0.001 and 0.01 mg/kg IP (only these doses significant vs Week 0)) is recorded as “first week”. For the same compound, the “onset of action: enhancement of sucrose intakes reached statistical significance” value in data set [3] (SON-117 0.001 and 1.0 mg/kg) is “first week”. Further, the “effect on sucrose intake one week after cessation of treatments” value in data set [3] (SON-117 1 mg/kg) is given as “abolished”. Also, in data set [3] (SON-117 0.01 and 0.1 mg/kg), the “effectiveness in the CMS model” value was “less effective than imipramine”. Further, the “magnitude of action in the CMS model” value in data set [3] (SON-117 most active doses (0.001 and 1.0 mg/kg)) is recorded as “comparable to that of imipramine”. Further, the “sucrose intake in control animals, compared to vehicle” value in data set [3] (once daily IP for five weeks, imipramine 10 mg/kg, SON-117 all doses (0.001, 0.01, 0.1 and 1 mg/kg)) was “no significant effect”. Further, the “sucrose consumption in stressed animals, compared to vehicle” value in data set [3] (once daily IP for five weeks, imipramine 10 mg/kg, SON-117 all four doses (0.001-1 mg/kg), hydrochloride) is listed as “significant effects; also recorded: enhanced”. The “affinity, 5-HT2A receptor binding” value in data set [4] is on record as “high affinity”. In data set [5], the “LSEQ getting to sleep” value is given as “easier” and the “LSEQ quality of sleep” value was “improved”. Moreover, the “recognition index in stressed animals” value in data set [6] (SON-117 0.001, 0.01 and 0.1 mg/kg, one week after withdrawal) is given as “restored”. Further, in data set [6] (SON-117 1 mg/kg, stressed animals), the “effect against the CMS-induced deficit in the novel object recognition” value is recorded as “ineffective”. Also, the “recognition index in control animals” value in data set [6] (SON-117 all doses (0.001-1 mg/kg IP), one week after withdrawal) was “no significant effect”. For the same compound, in data set [7], the “AUC, dependence on dose” value is listed as “dose-proportional increase” and the “Cmax, dependence on dose” value is on record as “dose-proportional increase”.
